Experimental data: patent publication US11149135B2, “Application of cyclodextrins (CDS) for remediation of perfluoroalkyl substances (PFASS)” (THE FLORIDA INTERNATIONAL UNIVERSITY BOARD OF TRUSTEES, priority 2017, dated 2021)

Experiments:
[1] = system: zebrafish (Danio rerio) embryo; assay: Zebrafish embryo toxicity assay; assay type: in vivo
Excerpt: To assess the potential of β-CD to attenuate the developmental and lethal effects of PFOA, zebrafish (Danio rerio) embryo are used as a toxicological model. Practical advantages of the zebrafish embryo system include ease of rearing and a high fecundity, as well as small (˜1 mm) and nearly transparent embryos, rapid (≤5-7 day) embryo development, and a fully sequenced genome. As such, the zebrafish embryo has been employed to look at a wide range of environmental contaminants in terms of acute and chronic toxicity. Acute toxicological endpoints (e.g., embryotoxicity, teratogenicity, neurotoxicity) which are readily accessible in the zebrafish embryo model are, furthermore, aligned with the reported health concerns associated with PFOA, and the system has, indeed, been used to evaluate toxicity of PFOA and related perfluorinated alkyl substances.
Perfluorooctanoic acid (PFOA, 96% purity) was purchased from Sigma-Aldrich. β-Cyclodextrin (β-CD, 98% purity) was purchased from Acros Organics. Both chemicals were used without further purification. Stock solutions of PFOA (7.25 mM, i.e., 3000 parts-per-million [ppm]), 1:1 β-CD:PFOA (β-CD: 7.25 mM, PFOA: 7.25 mM), and 2:1 β-CD:PFOA (β-CD: 14.50 mM, PFOA: 7.25 mM) were prepared with deionized water in polypropylene tubes. The solutions were sonicated until dissolution of the solids was achieved. A control solution of deionized water was also stored in a polypropylene tube. Stock solutions were subsequently diluted over a relevant range of concentrations for assessment of zebrafish embryo toxicity.
Adult zebrafish were maintained in 30-L tanks at 28° C. with 14 h:10 h light/dark cycle, and bred (from approximately 10-30 individuals) above 10-L tanks in mesh enclosures. Eggs were collected (from the bottom of tanks) within 1 h of the end of the dark cycle, and following collection and washing, transferred to plates containing E3 medium. Eggs containing dead, or obviously poor quality embryos, were removed. The remaining embryos were used, within ˜2 hour post-fertilization (hpf), for toxicity assays.
Zebrafish Embryo Toxicity Assay Assays were conducted in polypropylene 24-well plates (Evergreen Scientific, Los Angeles, Calif.) with five embryos (4- to 32-cell stage) per replicate, i.e., well (n=4), in E3 medium for a total of 20 zebrafish embryos per treatment/concentration. Embryos were exposed to a range of PFOA concentrations (30, 50, 100, 150, 200, 250 and 300 ppm) alone, and in 1:1 and 2:1 ratios with β-CD, and subsequently observed at 1, 2, 3, 4 and 7 days post-fertilization (dpf) with a dissecting light microscope to assess mortality and relevant developmental toxicity. Exposures and assessments were repeated several times, in preliminary studies, to determine relevant concentration levels for PFOA, and generally confirm results. Lethality was calculated as the concentration corresponding to 50% mortality (LC50); the LC50 values, and their 95% confidence intervals, were calculated via Probit Analysis in SPSS. In addition to lethality, inhibition of embryo development was morphometrically assessed based on the interocular distance between eyes (as a proxy for body size) of 7 dpf embryos (i.e., eleuthero-embryo stage) as measured using Olympus DP2-BSW imaging software. Apparent neurobehavioral effects were additionally measured as the percent of 7-dpf eleuthero-embryos displaying listing (i.e., falling to one side) behavior within a 30 s period (with shaking between each measurement to allow embryos to right themselves). Statistical Analyses
One-way analysis of variance (ANOVA) of the LC50 values, as well as the interocular distance and percent listing at 7 dpf, was performed in GraphPad Prism. The significance level was set at p=0.05.

[2] = 19F NMR association constants of β-CD:legacy PFAS complexes; assay type: binding; conditions: aqueous media, room temperature
Description: A detailed comprehensive Nuclear Magnetic Resonance (NMR) spectral study of the complexation of PFASs to β-CD was conducted, Weiss-Errico and O'Shea, J. Hazardous Mat. 2017 329, 57-65, with highlights herein. […] Competition studies with adamantane-carboxylic acid and phenol confirmed the persistence of the β-CD:PFAS complex. The aqueous solution pH, ionic strength, and the presence of humic acid have only a modest influence on the β-CD:PFAS complexes. Table 2 gives the association constants for β-CD complexes with a sample of the PFASs studied, including perfluoroheptanoic acid (PFHpA), perfluorooctanoic acid (PFOA), perfluorononanoic acid (PFNA), perfluorooctane sulfonate (PFOS), and perfluorooctanesulfonamide (PFOSA).

[3] = 19F NMR β-CD:PFOA association constants in the presence and absence of HSA; assay type: binding
Excerpt: The capacity or remediation in a human host as a therapeutic application is illustrated by the competitive binding between Human Serum Albumin (HSA) and β-CD for PFOA. Different spectroscopic techniques were employed to understand the interactions between HSA, PFOA, and β-CD. The association between PFOA and β-CD in the presence of HSA in water was characterized using ^19F NMR experiments. Changes in the ^19F chemical shift of PFOA titrated with β-CD were monitored to compare the host-guest association in the presence and absence of 35 μM HSA. The observed change in chemical shift of each fluorine peak varied differently as a function of β-CD concentration. […] The association constants for fluorine atoms closer to the PFOA carboxylate head group with β-CD are weaker in the presence of HSA, whereas the fluorine atoms towards the end of the alkyl chain (tail) experience a stronger interaction with β-CD in the presence of HSA. The 1:1 β-CD:PFOA association constant decreases in the presence of HSA likely due to the interaction of the carboxylate group of PFOA with HSA that weakens the PFOA association to β-CD.
NMR experiments were performed with a 400 MHz Bruker instrument with a quad probe (operating at 376.498 MHz for ^19F). Hexafluorobenzene was used as the internal standard with a chemical shift of −164.9 ppm.

[4] = target: Human Serum Albumin (HSA) (Homo sapiens, UniProt P02768); assay: HSA fluorescence (steady state and lifetime): reversal of PFOA binding by β-CD
Description: For the fluorescence spectroscopy experiments, stock solutions of PFOA (10 mM and 100 μM), β-CD (5 mM), and HSA (20 μM) were prepared with a 50 mM sodium phosphate buffer (pH 7.4) solution in polypropylene tubes
Steady state emission experiments were performed with a PC1 Fluorometer (ISS Inc, Champaign, Ill.). The excitation wavelength was 295 nm, and the emission spectra were recorded between 305 and 440 nm using 1 nm slit width for both excitation and emission. The emission spectra were corrected for the inner filter effect; however, the inner filter effect was insignificant at the HSA concentrations used in this study. Fluorescence lifetime experiments (frequency-resolved) were performed with a ChronoFD Fluorometer (ISS Inc, Champaign, Ill.). The excitation wavelength was 280 nm and 2,5-diphenyloxazole (PPO) was used as a lifetime reference. For both steady state and fluorescence lifetime experiments, the concentration of HSA was 10 βM. PFOA and β-CD were titrated into the sample at various concentrations.

[5] = Control experiments: interaction of internal standard with cyclodextrins; conditions: 1.44×10−3 M
Description: The solution consisted of 50% D2O and 50% DI H2O, adjusted to pH 7 with 0.036 M NaOH. […] Each cyclodextrin (α-, β-, γ-) was added at various stoichiometric ratios and the solution was sonicated until dissolution of the CD was achieved.

[6] = β-CD:legacy PFAS; from Wilson and Verrall, Langmuir; cited from earlier work
[7] = 50 mM Phosphate Buffer (pH 7.4)
[8] = 50 mM Phosphate Buffer (pH 7.4) with 35 μM HSA

Chain of Human Serum Albumin (HSA) (P02768 25-609): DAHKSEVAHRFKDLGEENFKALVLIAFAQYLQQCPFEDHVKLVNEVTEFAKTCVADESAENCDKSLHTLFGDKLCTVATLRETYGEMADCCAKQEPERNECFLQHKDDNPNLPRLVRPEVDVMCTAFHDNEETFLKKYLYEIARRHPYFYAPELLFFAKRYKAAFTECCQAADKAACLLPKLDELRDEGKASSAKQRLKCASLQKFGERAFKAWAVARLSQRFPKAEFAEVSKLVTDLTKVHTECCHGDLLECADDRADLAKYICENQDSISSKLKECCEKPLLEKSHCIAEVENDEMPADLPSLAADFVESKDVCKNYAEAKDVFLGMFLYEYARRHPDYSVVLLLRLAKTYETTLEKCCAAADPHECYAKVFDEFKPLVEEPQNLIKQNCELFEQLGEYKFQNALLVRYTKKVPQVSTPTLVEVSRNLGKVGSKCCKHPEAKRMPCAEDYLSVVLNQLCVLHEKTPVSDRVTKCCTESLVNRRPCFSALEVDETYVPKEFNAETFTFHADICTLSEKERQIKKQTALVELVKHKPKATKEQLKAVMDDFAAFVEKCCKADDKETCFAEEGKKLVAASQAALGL

SMILES: O=C(O)C(F)(F)C(F)(F)C(F)(F)C(F)(F)C(F)(F)C(F)(F)C(F)(F)F [PFOA, perfluorooctanoic acid]
- LC50 ([1]; 1 dpf, ppm PFOA): 47.3±3.6 ppm
- interocular distance ([1]; 7 dpf, surviving embryos at sub-lethal concentrations ≤50 ppm PFOA, pooled): 0.25±0.06 mm
- percent of surviving embryos listing within a 30 second period ([1]; 7 dpf, ≤50 ppm PFOA, pooled): 96±9%
- lethality at 24 hpf ([1]; PFOA concentrations above 100 ppm): all embryos dead
- embryos showing discernible deformities ([1]; by 7 dpf, bent spines and edemas): ~5%
- hatching rates ([1]; surviving embryos, hatched by 3 dpf): unaffected
- K1:1 association constant ([2]; 1:1 β-CD:PFAS complex): 5.00 ± 0.10 × 10^5 M^−1
- K2:1 association constant ([2]; 2:1 β-CD:PFAS complex): 1.20 ± 0.50 × 10^3 M^−1
- K1:1 β-CD:PFOA [3, 7]: 4.16 ± 0.88 × 10^5 M^−1
- K2:1 β-CD:PFOA [3, 7]: 6.42 ± 1.78 × 10^2 M^−1
- K1:1 β-CD:PFOA [3, 8]: 1.67 ± 0.33 × 10^5 M^−1
- K2:1 β-CD:PFOA [3, 8]: 9.09 ± 1.27 × 10^2 M^−1

SMILES: OC[C@H]1O[C@@H]2O[C@H]3[C@H](O)[C@@H](O)[C@@H](O[C@H]4[C@H](O)[C@@H](O)[C@@H](O[C@H]5[C@H](O)[C@@H](O)[C@@H](O[C@H]6[C@H](O)[C@@H](O)[C@@H](O[C@H]7[C@H](O)[C@@H](O)[C@@H](O[C@H]8[C@H](O)[C@@H](O)[C@@H](O[C@H]1[C@H](O)[C@H]2O)O[C@@H]8CO)O[C@@H]7CO)O[C@@H]6CO)O[C@@H]5CO)O[C@@H]4CO)O[C@@H]3CO [β-CD, β-Cyclodextrin]
- effect on PFOA binding to HSA, steady state fluorescence ([4]; 10 μM HSA titrated with PFOA, 1:1 and 2:1 β-CD:PFOA ratios): cannot completely reverse the first PFOA binding to HSA
- fluorescence intensity and λmax of HSA with PFOA ([4]; 10 μM HSA, 500 μM PFOA, 5:1 β-CD:PFOA ratio (2500 μM β-CD)): return to the values observed for HSA in the absence of PFOA
- fluorescence lifetime τ and α values of HSA with PFOA ([4]; 10 μM HSA, 50:1 PFOA:HSA, 5:1 β-CD:PFOA ratio): identical to those determined for HSA in the absence of PFOA
- toxicity of β-CD alone ([1]; tested range up to maximum concentration 1645 ppm (1.45 mM) β-CD): No discernible toxicity

SMILES: Fc1c(F)c(F)c(F)c(F)c1F [hexafluorobenzene, Hexafluorobenzene]
- interaction with cyclodextrins [5]: does not significantly interact with cyclodextrins

SMILES: O=C(O)C(F)(F)C(F)(F)C(F)(F)C(F)(F)C(F)(F)F [PFHxA, perfluorohexanoic acid]
- Legacy PFAS Kassoc [6]: 2.35 +/− 0.46 × 10^4 M^−1
